# Test results as given in ChEMBL document CHEMBL1201862, “PubChem BioAssay data set” (2004).
#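 Tested at 5 concentrations; 48 h exposure; 96-well plates; endpoints linearly interpolated, else capped at highest concentration. At the GI50, growth is halved.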 The source made the active and inactive calls. Cut-off read from the data, not from the text of the source: active = GI50 up to about 1.1 µM and inactive = higher.
# Tests used:
# Test in all cases: growth of human tumour cells (NCI), 48 h
# [1] = test system: HCT-116
# [2] = test system: TK-10
# [3] = test system: UACC-62
# [4] = test system: KM12
# [5] = test system: NCI-H23
# [6] = test system: MCF7
# [7] = test system: IGROV-1
# [8] = test system: HT-29
# [9] = test system: NCI-H460
# [10] = test system: SK-MEL-2
# [11] = test system: OVCAR-3
# [12] = test system: LOX IMVI
# [13] = test system: HCT-15
# [14] = test system: Malme-3M
# [15] = test system: RPMI-8226
# [16] = test system: NCI/ADR-RES
# [17] = test system: MOLT-4
# [18] = test system: SK-MEL-5
# [19] = test system: EKVX
# [20] = test system: SF-539
SMILES,GI50 [1],GI50 [2],GI50 [3],GI50 [4],GI50 [5],GI50 [6],GI50 [7],GI50 [8],GI50 [9],GI50 [10],GI50 [11],GI50 [12],GI50 [13],GI50 [14],GI50 [15],GI50 [16],GI50 [17],GI50 [18],GI50 [19],GI50 [20]
CC(C)(C)[Si](C)(C)OCC1OC(n2cnc3c(N)ncnc32)CC1OS(C)(=O)=O (stereo unspecified),72.1 µM (inactive),42 µM (inactive),42.1 µM (inactive),> 100 µM (inactive),51.1 µM (inactive),> 100 µM (inactive),> 100 µM (inactive),> 100 µM (inactive),> 100 µM (inactive),> 100 µM (inactive),27.4 µM (inactive),> 100 µM (inactive),> 100 µM,> 100 µM (inactive),> 100 µM (inactive),> 100 µM (inactive),> 100 µM (inactive),–,–,–
CC1=C(C)[C@@]2(C)O[C@@]2(C)O[C@@]2(C)O[C@@]12C,> 100 µM (inactive),> 100 µM (inactive),> 100 µM (inactive),> 100 µM (inactive),> 100 µM (inactive),> 100 µM (inactive),–,> 100 µM (inactive),–,> 100 µM (inactive),–,> 100 µM (inactive),> 100 µM,> 100 µM (inactive),–,> 100 µM (inactive),–,> 100 µM (inactive),> 100 µM (inactive),–
CN1c2ccccc2C(=O)NC12CCN(CCCC(=O)c1ccc(F)cc1)CC2,44.7 µM (inactive),–,> 100 µM (inactive),> 100 µM (inactive),> 100 µM (inactive),55 µM (inactive),> 100 µM (inactive),23.1 µM (inactive),–,> 100 µM (inactive),48.9 µM (inactive),–,> 100 µM,27.7 µM (inactive),33.1 µM (inactive),> 100 µM (inactive),21.1 µM (inactive),26.1 µM (inactive),> 100 µM (inactive),50.6 µM (inactive)
CN1CCN(c2cc(-c3cc4ccccc4o3)oc(=O)c2C#N)CC1,77.1 µM (inactive),59.4 µM (inactive),–,99.3 µM (inactive),> 100 µM (inactive),–,88.9 µM (inactive),78 µM (inactive),58.1 µM (inactive),> 100 µM (inactive),–,48.3 µM (inactive),99.8 µM,> 100 µM (inactive),75.5 µM (inactive),–,53 µM (inactive),72.8 µM (inactive),45.8 µM (inactive),98.4 µM (inactive)
O=c1cc(-c2cc(O)c(O)c(-c3c(O)cc4oc(-c5ccc(O)c(O)c5)cc(=O)c4c3O)c2)oc2cc(O)cc(O)c12,17.5 µM (inactive),> 25 µM (inactive),> 25 µM (inactive),–,> 25 µM (inactive),> 25 µM (inactive),> 25 µM (inactive),> 25 µM (inactive),> 25 µM (inactive),> 25 µM (inactive),> 25 µM (inactive),> 25 µM (inactive),> 25 µM,> 25 µM (inactive),–,> 25 µM (inactive),> 25 µM (inactive),> 25 µM (inactive),> 25 µM (inactive),> 25 µM (inactive)
COC(=O)c1cc(NC2OCC(OC(C)=O)C(OC(C)=O)C2OC(C)=O)nc(SC)c1C(=O)OC (stereo unspecified),> 100 µM (inactive),> 100 µM (inactive),> 100 µM (inactive),> 100 µM (inactive),> 100 µM (inactive),> 100 µM (inactive),> 100 µM (inactive),> 100 µM (inactive),> 100 µM (inactive),> 100 µM (inactive),> 100 µM (inactive),> 100 µM (inactive),> 100 µM,–,> 100 µM (inactive),> 100 µM (inactive),> 100 µM (inactive),> 100 µM (inactive),> 100 µM (inactive),> 100 µM (inactive)
COC(=O)C1=C(C)N2CCOC2(C)C(C(=O)OC)C1c1ccc[nH]1 (stereo unspecified),> 100 µM (inactive),> 100 µM (inactive),> 100 µM (inactive),> 100 µM (inactive),> 100 µM (inactive),–,> 100 µM (inactive),> 100 µM (inactive),> 100 µM (inactive),> 100 µM (inactive),> 100 µM (inactive),–,–,–,> 100 µM (inactive),–,> 100 µM (inactive),> 100 µM (inactive),> 100 µM (inactive),> 100 µM (inactive)
COc1ccc(OC)c(SC(CC(=O)c2ccccc2)c2ccccc2)c1 (stereo unspecified),3.66 µM (inactive),17.2 µM (inactive),15.6 µM (inactive),4.06 µM (inactive),18.6 µM (inactive),3.14 µM (inactive),11 µM (inactive),8.24 µM (inactive),37.1 µM (inactive),20.1 µM (inactive),4.69 µM (inactive),–,17.5 µM,19.8 µM (inactive),–,17.7 µM (inactive),0.877 µM (active),13.8 µM (inactive),15.2 µM (inactive),4.32 µM (inactive)
COc1cccc(C2C(C(=O)O)=C(CO)Oc3cc4c(cc32)OCO4)c1OC (stereo unspecified),–,> 100 µM (inactive),> 100 µM (inactive),–,> 100 µM (inactive),–,> 100 µM (inactive),–,> 100 µM (inactive),> 100 µM (inactive),> 100 µM (inactive),> 100 µM (inactive),> 100 µM,> 100 µM (inactive),> 100 µM (inactive),–,> 100 µM (inactive),> 100 µM (inactive),> 100 µM (inactive),> 100 µM (inactive)
Cc1ccc2oc3c(ccc(=O)n3C)c(=O)c2c1,> 100 µM (inactive),> 100 µM (inactive),> 100 µM (inactive),> 100 µM (inactive),> 100 µM (inactive),> 100 µM (inactive),> 100 µM (inactive),> 100 µM (inactive),> 100 µM (inactive),> 100 µM (inactive),> 100 µM (inactive),> 100 µM (inactive),> 100 µM,> 100 µM (inactive),–,> 100 µM (inactive),–,> 100 µM (inactive),89.7 µM (inactive),> 100 µM (inactive)
COC(=O)c1ccccc1/N=C(/NC1CCCCCC1)NS(=O)(=O)c1ccc(C)cc1,> 100 µM (inactive),> 100 µM (inactive),> 100 µM (inactive),> 100 µM (inactive),> 100 µM (inactive),99.1 µM (inactive),> 100 µM (inactive),> 100 µM (inactive),> 100 µM (inactive),> 100 µM (inactive),> 100 µM (inactive),> 100 µM (inactive),> 100 µM,–,> 100 µM (inactive),> 100 µM (inactive),> 100 µM (inactive),> 100 µM (inactive),> 100 µM (inactive),> 100 µM (inactive)
Cc1cc(C)nc(NS(=O)(=O)c2ccc(Nc3c4ccccc4nc4c(C(=O)N5CCN(CCOS(C)(=O)=O)CC5)cccc34)cc2)n1,> 100 µM (inactive),> 100 µM (inactive),> 100 µM (inactive),> 100 µM (inactive),> 100 µM (inactive),–,> 100 µM (inactive),> 100 µM (inactive),84.9 µM (inactive),> 100 µM (inactive),96.4 µM (inactive),–,> 100 µM,> 100 µM (inactive),> 100 µM (inactive),–,60.3 µM (inactive),> 100 µM (inactive),–,> 100 µM (inactive)
Cc1cc(S(=O)(=O)Nc2nc(Nc3ccccc3)n[nH]2)c(SSc2cc(Cl)c(C)cc2S(=O)(=O)Nc2nc(Nc3ccccc3)n[nH]2)cc1Cl,> 100 µM (inactive),90.8 µM (inactive),> 100 µM (inactive),> 100 µM (inactive),> 100 µM (inactive),> 10 µM (inactive),> 100 µM (inactive),98.2 µM (inactive),> 100 µM (inactive),–,> 100 µM (inactive),> 100 µM (inactive),> 100 µM,46.8 µM (inactive),> 100 µM (inactive),> 100 µM (inactive),35.7 µM (inactive),> 100 µM (inactive),> 100 µM (inactive),> 10 µM (inactive)
O=C1OC(c2ccccc2)=N/C1=C\c1ccc(Oc2ccc(Cl)c(Cl)c2)cc1,33.2 µM (inactive),> 100 µM (inactive),26.2 µM (inactive),50 µM (inactive),35.4 µM (inactive),–,> 100 µM (inactive),69 µM (inactive),71.4 µM (inactive),50.5 µM (inactive),–,–,43.2 µM,26 µM (inactive),–,–,20.7 µM (inactive),30.1 µM (inactive),45.1 µM (inactive),24.2 µM (inactive)
CC1Oc2c(c(O)cc3oc(=O)cc(-c4ccccc4)c23)C(=O)C1C (stereo unspecified),–,> 100 µM (inactive),> 100 µM (inactive),–,> 100 µM (inactive),–,> 100 µM (inactive),> 10 µM (inactive),> 100 µM (inactive),> 100 µM (inactive),> 100 µM (inactive),> 100 µM (inactive),> 100 µM,> 100 µM (inactive),> 100 µM (inactive),–,> 100 µM (inactive),> 100 µM (inactive),> 100 µM (inactive),> 100 µM (inactive)
NC(CCCCCCCCCCP(=O)(O)O)C(=O)O (stereo unspecified),> 100 µM (inactive),> 100 µM (inactive),> 100 µM (inactive),> 100 µM (inactive),> 100 µM (inactive),> 100 µM (inactive),> 100 µM (inactive),> 100 µM (inactive),> 100 µM (inactive),> 100 µM (inactive),> 100 µM (inactive),> 100 µM (inactive),> 100 µM,–,> 100 µM (inactive),> 100 µM (inactive),> 100 µM (inactive),> 100 µM (inactive),> 100 µM (inactive),> 100 µM (inactive)
